These results are taken from patent publication US20260102418A1, “An anti-influenza virus derivative and uses thereof” (Shijiazhuang Discovery Medicine Technology Co., Ltd., priority 2022, published 2026).

The structures appear in SMILES notation.

The experiment relates to A/Weiss/43 (H1N1) oseltamivir-resistant strain. The experiment can be described thus: Antiviral CPE assay in MDCK, other influenza strains. Type of experiment: cell-based, influenza A virus (IAV). As to conditions: Influenza A virus.
Turning to `COC(=O)OCOc1c2n(ccc1=O)N([C@@H]1c3ccccc3SCc3c1ccc(F)c3F)[C@@H]1COC3(CC3)CN1C2=O` [Compound M42, reference compound], the concentration for a half-maximal effect (EC50) – broadly, the concentration at which the effect is half-maximal – came out at 2.11 ± 0.72 nM. Then `[2H]C([2H])([2H])OC(=O)OCOc1c2n(ccc1=O)N([C@@H]1c3ccccc3[Se]Cc3c1ccc(F)c3F)[C@@H]1COC3(CC3)CN1C2=O` [DS1833], with 1.16 ± 0.37 nM; and `[2H]C([2H])([2H])OC(=O)OCOc1c2n(ccc1=O)N([C@@H]1c3ccccc3SCc3c1ccc(F)c3F)[C@@H]1COC3(CC3)CN1C2=O` [DS1837], with 1.45 ± 0.55 nM. In turn, `O=C1c2c(OCOP(=O)(O)O)c(=O)ccn2N([C@@H]2c3ccccc3[Se]Cc3c2ccc(F)c3F)[C@@H]2COC3(CC3)CN12` [DS14915] displayed an EC50 of 1.33 ± 0.22 nM. `NC(=O)c1ncn([C@@H]2O[C@H](CO)[C@@H](O)[C@H]2O)n1` [Ribavirin, reference compound]: a half-maximal response (EC50) required 30300 ± 4080 nM.
